Measured values: article PMC3083445, “Mastering the Canonical Loop of Serine Protease Inhibitors: Enhancing Potency by Optimising the Internal Hydrogen Bond Network” (PLoS ONE, 2011)
Read-outs that look alike come from different tables or passages of the source. Where a SMILES comes first, the peptide text is derived from it. Bridges are numbered along the chain shown (N, C = ends).

Columns and labels:
[1] = target: T1, KLK4 (Homo sapiens, UniProt Q9Y5K2); experiment: biochemical
Method: (§3) Increasing concentrations of inhibitors were incubated with various concentration of protease (final concentrations: KLK4, 1.5 nM; KLK12, 15 nM; KLK14, 2 nM; trypsin, 1 nM; matriptase, 4 nM; thrombin, 25 nM; α-chymotrypsin 25 nM) for 20 min in 200 µl assay buffer (100 mM Tris-HCl, 100 mM NaCl2, 0.005% triton-X, pH 8.0). Assays with thrombin and trypsin included 10 mM CaCl2. Enzyme activity was initiated by addition of substrate in 100 µl assay buffer (final concentration 100 µM; see Table 2). The rate of hydrolysis was measured at 405 nm over 7 min and was linear over this period. […] For SFTI-FCQR Asp14, K i was determined by inhibition at various substrate concentrations using the competitive inhibition model and non-linear regression in Prism 5 (GraphPad Software Inc). The K i for this inhibitor was also determined using the Morrison equation for tight binding inhibitors [43] (FVQR-pNA K M = 679.9±113.1 µM [16]) and non-linear regression in Prism 5. […] The k on and k off were determined from the lag phases and steady state of inhibition as previously described [44] using assay conditions as above and 500 µM substrate.

[2] = target: T2, Thrombin (Homo sapiens, UniProt P00734); set-up: method as in PMID 11549459; details: substrate N-t-Boc-LRR-AMC; cited from earlier work
T2 construct: Bovine β-trypsin, bovine α-chymotrypsin and human thrombin were obtained from Sigma; purchased Sigma

[3] = target: T3, trypsin (Bos taurus, UniProt P00760); experiment: Inhibition of fibrinogen proteolysis by trypsin (SDS-PAGE); assay type: biochemical, bovine; details: up to 10,000 nM inhibitor; 7 µM fibrinogen, 15 min
T3 construct: Bovine β-trypsin, bovine α-chymotrypsin and human thrombin were obtained from Sigma; purchased Sigma
T3 sequence (P00760 24-246): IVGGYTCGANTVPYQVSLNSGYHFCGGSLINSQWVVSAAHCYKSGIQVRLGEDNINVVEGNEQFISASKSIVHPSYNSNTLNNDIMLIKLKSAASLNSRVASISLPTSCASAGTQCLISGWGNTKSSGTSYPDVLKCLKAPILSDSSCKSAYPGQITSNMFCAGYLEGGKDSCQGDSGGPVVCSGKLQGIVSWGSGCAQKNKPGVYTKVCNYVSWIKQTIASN
Method: (§1) Assays with thrombin and trypsin included 10 mM CaCl2. […] Proteolysis fragments were separated on 10% polyacrylamide gels.

[4] = target: T1, KLK4
Method: as §3

[5] = target: T4, α-chymotrypsin (Bos taurus, UniProt P00766); experiment: Amidolytic inhibition assay of α-chymotrypsin; assay type: biochemical, bovine
T4 construct: Bovine β-trypsin, bovine α-chymotrypsin and human thrombin were obtained from Sigma; purchased Sigma
Method: as §1

[6] = target: T2, Thrombin; experiment: Amidolytic inhibition assay of thrombin; assay type: biochemical
Method: as §1

[7] = target: T1, KLK4; experiment: Inhibition of fibrinogen proteolysis by KLK4 (SDS-PAGE); assay type: biochemical; set-up: polyhistidine (C); made in house; host or cells: Sf9 insect cells; details: 7 µM fibrinogen, 90 min
Method: as §1

[8] = target: T5, KLK12 (Homo sapiens, UniProt Q9UKR0); experiment: Inhibition of fibrinogen proteolysis by KLK12 (SDS-PAGE); assay type: biochemical; details: up to 10,000 nM inhibitor; 7 µM fibrinogen, 180 min
T5 construct: purchased R&D Systems
T5 sequence (Q9UKR0 18-248): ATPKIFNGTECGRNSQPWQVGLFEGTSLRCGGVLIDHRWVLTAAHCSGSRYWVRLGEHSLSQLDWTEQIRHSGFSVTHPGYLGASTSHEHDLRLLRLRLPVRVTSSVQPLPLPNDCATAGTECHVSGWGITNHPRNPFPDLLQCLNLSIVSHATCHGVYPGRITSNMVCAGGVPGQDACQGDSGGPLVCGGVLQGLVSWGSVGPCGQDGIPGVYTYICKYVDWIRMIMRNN
Method: as §1

[9] = target: T6, Matriptase (Homo sapiens, UniProt Q9Y5Y6); experiment: Amidolytic inhibition assay of matriptase; assay type: biochemical
T6 construct: purchased R&D Systems
T6 sequence (Q9Y5Y6 615-855 limits assumed): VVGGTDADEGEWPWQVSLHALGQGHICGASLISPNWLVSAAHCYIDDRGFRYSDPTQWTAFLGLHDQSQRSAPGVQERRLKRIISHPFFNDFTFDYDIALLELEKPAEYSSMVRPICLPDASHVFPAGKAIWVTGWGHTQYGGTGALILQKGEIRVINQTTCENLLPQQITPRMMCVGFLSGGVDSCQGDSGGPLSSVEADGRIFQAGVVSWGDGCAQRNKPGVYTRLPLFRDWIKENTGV
Method: as §1

[10] = Bioavailability / serum levels in mice by LC-MS; assay type: in vivo; details: 3 mg/kg
Method: Stability and bioavailability of SFTI-FCQR Asn14 in vivo was assessed in BALB/cFoxn1/Arc mice by oral, intravenous and intraperitoneal delivery (3 mg/kg). Inhibitor was dissolved in PBS at a concentration of 0.6 mg/ml prior to dosing. Serum levels of SFTI-FCQR Asn14 were subsequently measured by Liquid Chromatography-Mass Spectrometry (LC-MS) at Tetra Q laboratories (University of Queensland, Brisbane, Australia). This study was carried out in strict accordance to the recommendations of the Australian Code of Practice for the Care and Use of Animals for Scientific purposes (7th edition 2004) and the protocol was approved by the University of Queensland Animal Ethics Committee (ABS group) which assigned the project approval code TetraQ/479/09/Bluebox. All efforts were made to minimize suffering by experimental animals.

[11] = Stability of SFTI variants in culture with prostate cancer cells; assay type: in vitro ADME; details: human; 1 µM inhibitor in serum-containing media on LNCaP, 22Rv1 and PC3 monolayers; residual KLK4 inhibition; read-out: half-life in cell culture
Method: (§2) The half-life in cell culture for SFTI-FCQR Asn14 and SFTI-FCQR Lys14 was determined using previously described methods. Briefly, monolayers of LNCaP, 22Rv1 and PC3 cells were established in RPMI 1640 medium supplemented with 10% foetal calf serum (HyClone), 100 U/ml penicillin (Invitrogen) and 100 µg/ml streptomycin (Invitrogen). Cells were treated ±1 µM inhibitor (SFTI-FCQR Asn14 or SFTI-FCQR Lys14) in fresh serum-containing media. Samples of media were taken at 24 hr intervals and boiled at 97°C for 15 min to denature serum protein. Residual inhibition by SFTI-FCQR variants was determined in competitive kinetic assays (as above), adding a volume of media to give 10 nM SFTI-FCQR Asn14 or 25 nM SFTI-FCQR Lys14 at 0 hr. Media without inhibitor was used to adjust for any endogenous media inhibition and data represent the mean ± SEM of three triplicate experiments.

[12] = target: T7, KLK14 (Homo sapiens, UniProt Q9P0G3); experiment: Inhibition of fibrinogen proteolysis by KLK14 (SDS-PAGE); assay type: biochemical; details: up to 10,000 nM inhibitor; 7 µM fibrinogen, 90 min
T7 construct: polyhistidine (C); made in house; host or cells: Sf9 insect cells
T7 sequence (Q9P0G3 25-251): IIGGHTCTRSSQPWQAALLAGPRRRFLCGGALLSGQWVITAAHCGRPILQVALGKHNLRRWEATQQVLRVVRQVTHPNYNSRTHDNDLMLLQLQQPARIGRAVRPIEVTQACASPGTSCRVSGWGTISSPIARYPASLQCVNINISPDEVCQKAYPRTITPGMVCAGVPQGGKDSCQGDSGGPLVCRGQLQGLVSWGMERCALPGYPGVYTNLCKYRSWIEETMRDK
Method: as §1

[13] = target: T8, β-Trypsin (Bos taurus, UniProt P00760); experiment: Amidolytic inhibition assay of β-trypsin; assay type: biochemical, bovine
T8 construct: Bovine β-trypsin, bovine α-chymotrypsin and human thrombin were obtained from Sigma; purchased Sigma
T8 sequence (P00760 24-246): T3 sequence (P00760 24-246)
Method: as §1

[14] = target: T7, KLK14; experiment: Amidolytic inhibition assay of KLK14 with pNA substrate; assay type: biochemical
Method: as §1

[15] = tested on: LNCaP, 22Rv1 and PC3 cells; set-up: method as in PMID 19549601; details: cited from earlier work
[16] = target: T1, KLK4; experiment: in vitro; details: recombinant KLK4 (isolated protease), pH 8
Method: as §3

[17] = tested on: LNCaP, 22Rv1 and PC3 cells; experiment: Stability of SFTI variants in culture with prostate cancer cells; assay type: in vitro ADME; details: 1 µM inhibitor in serum-containing media on prostate cancer cells; residual KLK4 inhibition
Method: as §2

[18] = relative to SFTI-FCQR Asp14 (Table 2)

T1 sequence (Q9Y5K2 31-254): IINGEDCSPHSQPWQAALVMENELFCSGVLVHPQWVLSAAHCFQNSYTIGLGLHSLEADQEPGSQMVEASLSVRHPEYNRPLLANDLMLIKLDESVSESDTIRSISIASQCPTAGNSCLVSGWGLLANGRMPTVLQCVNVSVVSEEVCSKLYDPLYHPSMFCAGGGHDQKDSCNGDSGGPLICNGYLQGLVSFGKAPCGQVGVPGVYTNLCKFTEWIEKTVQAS

`CC[C@H](C)[C@@H]1NC(=O)[C@@H]2CCCN2C(=O)[C@@H]2CCCN2C(=O)[C@H]([C@@H](C)CC)NC(=O)[C@H](CO)NC(=O)[C@H](CCCNC(=N)N)NC(=O)[C@H](CCC(N)=O)NC(=O)[C@@H]2CSSC[C@H](NC1=O)C(=O)N[C@@H](Cc1ccccc1)C(=O)N1CCC[C@H]1C(=O)N[C@@H](C)C(=O)NCC(=O)N[C@@H](Cc1ccccc1)C(=O)N2` [SFTI-FCQR Ala14] (cyclo(GFCQRSIPPICFPA); disulfide 3-11) gave an IC50 [1] of 26.2 ± 0.85 nM and a Ki [1] of 18.3 ± 3.36 nM.

For “SFTI-1: 1.4 kDa cyclic Bowman-Birk serine protease inhibitor isolated from sunflower (Helianthus annuus) seeds”, the Ki [2] is given as 5050 nM.

In the case of `CC[C@H](C)[C@@H]1NC(=O)[C@@H]2CCCN2C(=O)[C@@H]2CCCN2C(=O)[C@H]([C@@H](C)CC)NC(=O)[C@H](CO)NC(=O)[C@H](CCCNC(=N)N)NC(=O)[C@H](CCC(N)=O)NC(=O)[C@@H]2CSSC[C@H](NC1=O)C(=O)N[C@@H](Cc1ccccc1)C(=O)N1CCC[C@H]1C(=O)N[C@@H](CC(N)=O)C(=O)NCC(=O)N[C@@H](Cc1ccccc1)C(=O)N2` [SFTI-FCQR Asn14] (cyclo(GFCQRSIPPICFPN); disulfide 3-11), the “inhibition of trypsin fibrinogen proteolysis” value [3] is reported as “No inhibition”, the “calculated second order rate constant (k off/K i)” value ([4]; calculated from k off and K i) is reported as 8.03e+08 M⁻¹ s⁻¹ and the “fold improvement in KLK4 inhibition compared to SFTI-FCQR Asp14” value [4, 18] is reported as 125 fold. The IC50 ([4]; substrate FVQRpNA 100 µM, KLK4 1.5 nM, 20 min preincubation (SFTI-FCQR Asn14: 0.15 nM KLK4 over 2 hr; Lys14 assayed immediately after addition)) was 0.0635 ± 0.0024 nM, the “inhibition of α-chymotrypsin” value ([5]; at 10,000 nM inhibitor) was “no inhibition” and the IC50 ([5]; substrate WpNA 100 µM, α-chymotrypsin 25 nM) was over 10000 nM. For the same compound, the inhibition of thrombin ([6]; at 10,000 nM inhibitor) was “no inhibition”, the IC50 ([6]; substrate Bz-FVRpNA 100 µM, thrombin 25 nM, 10 mM CaCl2) was over 10000 nM and the “lowest inhibitor concentration blocking KLK4 proteolysis of fibrinogen” value [7] was 62.5 nM. For the same compound, the “inhibition of KLK12 fibrinogen proteolysis” value [8] was “No inhibition”, the inhibition of matriptase ([9]; at 10,000 nM inhibitor) was “no inhibition” and the IC50 ([9]; substrate Bz-FVRpNA 100 µM, matriptase 4 nM) was over 10000 nM. The half-life ([10]; BALB/cFoxn1/Arc, mouse, serum, IV and IP) was 25 to 28 min, the level at time molar at 4 h ([10]; BALB/cFoxn1/Arc, mouse, serum, IV and IP, irrespective of delivery route, read-out: residual inhibitor concentration in serum after 4 hours) was 10 ± 0.8 nM and the “serum levels after oral delivery” value ([10]; oral, LC-MS) was “did not result in detectable levels of inhibitor in serum”. For the same compound, the half-life at 1 µM [11] was 55 to 70 h, the Ki [1] was 0.0386 ± 0.006 nM and the “inhibition of KLK14 fibrinogen proteolysis” value [12] was “No inhibition”. The “relative increase in trypsin inhibition compared to SFTI-FCQR Asp14” value [13, 18] was “two-fold”, the IC50 ([13]; substrate BAPNA 100 µM, trypsin 1 nM, 10 mM CaCl2) was 2180 ± 145 nM and the “relative increase in KLK14 inhibition compared to SFTI-FCQR Asp14” value [14, 18] was “six-fold”. It also gave an IC50 ([14]; substrate Ac-GSLR-pNA 100 µM, KLK14 2 nM) of 251 ± 21.9 nM.

`CC[C@H](C)[C@@H]1NC(=O)[C@@H]2CCCN2C(=O)[C@@H]2CCCN2C(=O)[C@H]([C@@H](C)CC)NC(=O)[C@H](CO)NC(=O)[C@H](CCCNC(=N)N)NC(=O)[C@H](CCC(N)=O)NC(=O)[C@@H]2CSSC[C@H](NC1=O)C(=O)N[C@@H](Cc1ccccc1)C(=O)N1CCC[C@H]1C(=O)NCC(=O)NCC(=O)N[C@@H](Cc1ccccc1)C(=O)N2` [SFTI-FCQR Gly14] (cyclo(GFCQRSIPPICFPG); disulfide 3-11) gave an IC50 [1] of 14.7 ± 1.09 nM and a Ki [1] of 10.4 ± 2.87 nM.

For `CC[C@H](C)[C@@H]1NC(=O)[C@@H]2CCCN2C(=O)[C@@H]2CCCN2C(=O)[C@H]([C@@H](C)CC)NC(=O)[C@H](CO)NC(=O)[C@H](CCCNC(=N)N)NC(=O)[C@H](CCC(N)=O)NC(=O)[C@@H]2CSSC[C@H](NC1=O)C(=O)N[C@@H](Cc1ccccc1)C(=O)N1CCC[C@H]1C(=O)N[C@@H](CO)C(=O)NCC(=O)N[C@@H](Cc1ccccc1)C(=O)N2` [SFTI-FCQR Ser14] (cyclo(GFCQRSIPPICFPS); disulfide 3-11), the IC50 [1] was 29.2 ± 1.08 nM and the Ki [1] was 21.2 ± 3.81 nM.

In the case of `CC[C@H](C)[C@@H]1NC(=O)[C@@H]2CCCN2C(=O)[C@@H]2CCCN2C(=O)[C@H]([C@@H](C)CC)NC(=O)[C@H](CO)NC(=O)[C@H](CCCNC(=N)N)NC(=O)[C@H](CCC(N)=O)NC(=O)[C@@H]2CSSC[C@H](NC1=O)C(=O)N[C@@H](Cc1ccccc1)C(=O)N1CCC[C@H]1C(=O)N[C@@H](CC(=O)O)C(=O)NCC(=O)N[C@@H](Cc1ccccc1)C(=O)N2` [SFTI-FCQR Asp14] (cyclo(GFCQRSIPPICFPD); disulfide 3-11), the Ki ([4]; competitive inhibition model, various substrate concentrations, FVQRpNA) is listed as 3.62 ± 0.26 nM, the “stability in culture with prostate cancer cells” value [15] is listed as “highly resistant to breakdown” and the “lowest inhibitor concentration blocking KLK4 proteolysis of fibrinogen” value [7] is listed as 250 nM. For the same compound, the Ki [1] was 3.89 ± 0.4 nM.

In the case of `CC[C@H](C)[C@@H]1NC(=O)[C@@H]2CCCN2C(=O)[C@@H]2CCCN2C(=O)[C@H]([C@@H](C)CC)NC(=O)[C@H](CO)NC(=O)[C@H](CCCNC(=N)N)NC(=O)[C@H](CCC(N)=O)NC(=O)[C@@H]2CSSC[C@H](NC1=O)C(=O)N[C@@H](Cc1ccccc1)C(=O)N1CCC[C@H]1C(=O)N[C@@H](CCCCN)C(=O)NCC(=O)N[C@@H](Cc1ccccc1)C(=O)N2` [SFTI-FCQR Lys14] (cyclo(GFCQRSIPPICFPK); disulfide 3-11), the half-life [16] is reported as 56.3 ± 6.2 min, the “initial activity lost within the first 24 hr in cell culture” value [17] is reported as “two-thirds” and the IC50 [1] is reported as 6.07 ± 0.13 nM. It also gave a Ki [1] of 3.56 ± 0.27 nM.
